Laboratory results from publication PMC9011347, “Small-Molecule Inhibitors Targeting Lipolysis in Human Adipocytes” (Journal of the American Chemical Society, 2022).
Several values for one entry are separate records, joined by “and”; a condition that tells them apart may be missing. Equal values may be shown once. Read-outs that look alike come from different tables or passages of the source.

Experiments:
Format in all cases: biochemical
[1] = target: T1, c2 (mouse aa 1–158 and human aa 159–288) (Mus musculus, UniProt Q8BJ56, M232L/Q257R/R250Q); assay: TAG hydrolase assay, chimeric ATGL variants; settings: chimeric variant c2
T1 construct: host or cells: Expi293 cells, cell lysate
Source text: (§1) Since experimental three-dimensional (3D) structures for ATGL are currently not available, we utilized chimeric variants of mouse and human ATGL for the identification of binding sites. The constructs c1–c9 (Figure 5a) comprised the N-terminal […] of ATGL, which are sufficient to retain enzymatic activity.[50] In variants c1 and c2, exchange of the N-terminal 158 aa between human and mouse ATGL switched inhibitor reactivity.
(§2) Figure 5 Analysis of chimeric proteins comprising human and mouse ATGL. (a) Schematic view of the minimal active domain of wild-type and chimeric ATGL variants (c1–c9). Nonidentical aa are indicated in blue and red for mouse and human ATGL, respectively. ATGL variants were expressed in Expi293 cells and TAG hydrolase activity was determined in cell lysates in the presence or absence of NG-497 (10 μM) and Atglistatin (10 μM), respectively. Inhibition of ATGL variants by respective inhibitors (tick mark) and lack of inhibition (cross) is indicated at the right edge. The expression of all ATGL variants was confirmed by Western blotting analysis (Figure S6). (b) Dose-dependent inhibition of human ATGL (aa 1–288) and c1 (human aa 1–158 and mouse aa 159–288) by NG-497. (c) Dose-dependent inhibition of mouse ATGL (aa 1–288) and c2 (mouse aa 1–158 and human aa 159–288) by Ai. IC50 values are shown in the insets. Data are presented as relative inhibition of respective DMSO controls and are indicated as mean ± SD. (d) 3D homology model of the minimal active domain of mouse ATGL (M1–L254) depicted as a cartoon. Residues 1–178 are in blue, and residues 179–254 are in gray. S47 and D166 comprising the active site are represented as green sticks. T101, C106, R109, N111, and S133 are colored in orange, A60, N68, I69, T93, C97, and T146 are colored in magenta. TEXT PRINTED IN THE PICTURE: (b) NG-497: IC50 [μM] (human): 1.3±0.1; IC50 [μM] (c1): 1.3±0.1 | (b) Ai: IC50 [μM] (human): n.det.; IC50 [μM] (c1): n.det. | (c) NG-497: IC50 [μM] (mouse): n.det.; IC50 [μM] (c2): n.det. | (c) Ai: IC50 [μM] (mouse): 2.5±0.3; IC50 [μM] (c2): 2.4±0.1 […]
(§3) Experimental details, materials, and methods
(§4) Expression of recombinant ATGL constructs and preparation of cell lysates. Expi293 cells were cultivated in Expi293 Expression Medium (GIBCO, Thermo Fisher Scientific, Waltham, USA) at standard conditions (37°C, 5% CO2, 95% humidified atmosphere, 125 rpm). DNA constructs containing ATGL from different species and chimeric ATGL variants in pcDNA3.1(+)myc-His C Vector were obtained from BioCat GmbH (Heidelberg, Germany). […] Protein concentrations were determined using Bio-Rad protein assay (Bio-Rad 785, Bio-Rad Laboratories, Munich, Germany) using BSA as standard. […]

[2] = target: T2, c1 (human aa 1–158 and mouse aa 159–288) (Homo sapiens, UniProt Q96AD5, L232M/Q250R/R257Q); assay: TAG hydrolase assay, chimeric ATGL variants; settings: chimeric variant c1
T2 construct: c1 (human aa 1–158 and mouse aa 159–288); host or cells: Expi293 cells, crude lysate
Source text: as §1, §2, §3, §4

mouse ATGL I69F = target: T3, mouse ATGL I69F (Mus musculus, UniProt Q8BJ56, I69F); assay: TAG hydrolase assay, humanized mouse ATGL variants; settings: variant I69F, NG-497 (10 μM) or Atglistatin (10 μM)
T3 construct: host or cells: Expi293 cells, cell lysate
Protocol: as §2
(§5) The region between aa 60 and 146 of human and mouse ATGL comprises 12 nonidentical aa. We generated 3D homology models for the minimal active domain of mouse ATGL to obtain more detailed insight into the topology of the relevant region (Figure 5d). Based on this model, aa T101, C106, R109, N111, and S133 locate at peripheral (loop) regions (indicated in orange, Figure 5d). […] For all other nonidentical aa (indicated in magenta, Figure 5d), we generated variants with single aa substitutions. The humanized variants A60V, N68K, T93I, and C97F were inactivated by Ai but not NG-497 (Figure 5a).
as §3
(§6) Expression of recombinant ATGL constructs and preparation of cell lysates. Expi293 cells were cultivated in Expi293 Expression Medium (GIBCO, Thermo Fisher Scientific, Waltham, USA) at standard conditions (37°C, 5% CO2, 95% humidified atmosphere, 125 rpm). DNA constructs containing ATGL from different species and chimeric ATGL variants in pcDNA3.1(+)myc-His C Vector were obtained from BioCat GmbH (Heidelberg, Germany). Cells were transfected with ExpiFectamine293 Transfection Kit (GIBCO) in Opti-Mem reduced serum medium (GIBCO) according to the manufacturer’s instructions. After 48 h, cells were harvested by centrifugation and washed three times with PBS. Cells were disrupted in buffer A (0.25 M sucrose, 1 mM EDTA, 1 mM dithiothreitol, 20µg/ml leupeptin, 2 µg/ml antipain, 1 µg/ml pepstatin, pH 7.0) by sonication (Virsonic 475, Virtis, Gardiner, USA). Nuclei and debris were removed by centrifugation at 1,000 g and 4°C for 10 min. Protein concentrations were determined using Bio-Rad protein assay (Bio-Rad 785, Bio-Rad Laboratories, Munich, Germany) using BSA as standard.
(§7) Expression and purification of mouse CGI-58. CGI-58 was expressed and purified as described 1. In brief, the coding sequence of mouse Cgi-58 was cloned into pHis-Sumo and co-transformed with the plasmid pTf16 expressing the chaperone Tig into E. coli BL21(DE3). Cells were cultured overnight at 37°C and 180 rpm in the presence of 40 µg/ml kanamycin and 34 µg/ml chloramphenicol. Thereafter, cells were transferred into fresh LB medium, grown until OD600 of 0.6, and expression was induced by the addition of 0.5 mM IPTG. After overnight incubation at 30°C, cells were harvested at 4,500 x g and 4°C for 20 min, […]

mouse ATGL T146G = target: T4, mouse ATGL T146G (Mus musculus, UniProt Q8BJ56, T146G); assay: TAG hydrolase assay, humanized mouse ATGL variants; settings: variant T146G, NG-497 (10 μM) or Atglistatin (10 μM)
T4 construct: host or cells: Expi293 cells, cell lysate
Protocol: as §2, §5, §3, §6, §7

T1 sequence (Q8BJ56 with tags, fused parts or gaps M232L/R250Q/Q257R): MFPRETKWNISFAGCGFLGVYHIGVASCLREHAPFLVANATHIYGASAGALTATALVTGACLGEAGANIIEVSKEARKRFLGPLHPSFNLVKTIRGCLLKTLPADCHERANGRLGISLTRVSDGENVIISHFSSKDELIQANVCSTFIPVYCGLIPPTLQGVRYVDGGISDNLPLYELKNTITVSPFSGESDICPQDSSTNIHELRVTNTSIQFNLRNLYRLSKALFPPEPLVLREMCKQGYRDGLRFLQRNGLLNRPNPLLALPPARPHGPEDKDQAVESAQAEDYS
T4 sequence (Q8BJ56 whole entry T146G): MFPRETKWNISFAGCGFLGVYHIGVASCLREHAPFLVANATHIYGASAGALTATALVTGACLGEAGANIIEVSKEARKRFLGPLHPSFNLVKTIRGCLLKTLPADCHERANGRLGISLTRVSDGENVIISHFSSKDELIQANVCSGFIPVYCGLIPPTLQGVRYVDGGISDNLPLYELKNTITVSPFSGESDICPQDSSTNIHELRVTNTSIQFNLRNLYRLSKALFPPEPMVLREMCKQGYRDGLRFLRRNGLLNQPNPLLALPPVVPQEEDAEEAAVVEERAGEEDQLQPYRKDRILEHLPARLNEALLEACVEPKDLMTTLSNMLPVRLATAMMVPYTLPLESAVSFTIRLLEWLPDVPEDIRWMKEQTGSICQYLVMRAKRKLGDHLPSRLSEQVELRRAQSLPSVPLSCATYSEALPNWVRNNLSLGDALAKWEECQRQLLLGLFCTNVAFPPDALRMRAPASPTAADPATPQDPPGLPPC
T2 sequence (Q96AD5 with tags, fused parts or gaps L232M/Q250R/R257Q): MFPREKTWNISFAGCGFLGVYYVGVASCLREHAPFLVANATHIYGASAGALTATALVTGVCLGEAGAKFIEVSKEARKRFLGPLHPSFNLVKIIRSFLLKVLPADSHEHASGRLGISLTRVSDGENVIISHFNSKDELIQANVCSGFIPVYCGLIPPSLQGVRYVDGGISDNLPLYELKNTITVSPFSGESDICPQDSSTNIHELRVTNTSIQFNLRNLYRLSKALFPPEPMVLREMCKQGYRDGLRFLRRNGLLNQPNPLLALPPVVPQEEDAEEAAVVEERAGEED
T3 sequence (Q8BJ56 whole entry I69F): as the sequence (Q8BJ56 whole entry T146G) above, with I69F, G146T counted along it

Row | SMILES | IC50 ([1]; read-out: IC50) | IC50 [2] | inhibition of TAG hydrolase activity (mouse ATGL I69F) | inhibition of TAG hydrolase activity (mouse ATGL T146G) | IC50 [1] | IC50 ([2]; read-out: IC50)
1 | CN(C)C(=O)Nc1cccc(-c2ccc(N(C)C)cc2)c1 [Atglistatin, reference compound] | ~2500 nM and 2400 nM | ineffective | neither inhibited | neither inhibited | – | –
2 | CCOc1ccc(-c2cc(OC)cc(C(=O)OC(C)C)n2)cc1 [NG-497] | – | – | neither inhibited | neither inhibited | ineffective | 1300 nM
